Results reported in patent publication US20220380366A1, “HETEROCYCLIC SULFOXIMINE COMPOUND AND INTERMEDIATE THEREOF, PREPARATION METHOD THEREFOR, AND APPLICATION THEREOF” (priority 2019, published 2022).
Like-named read-outs stand apart in the source and are kept apart here.

Experiments:
[1] = biological target: T1, wild-type RET kinase (Homo sapiens, UniProt P07949); test: Biochemical IC50 of wild-type RET kinase (33P-ATP filter binding, Reaction Biology)
T1 construct: purchased Reaction Biology Corporation (contract assay; enzyme is the CRO's)
T1 sequence (P07949 29-1114): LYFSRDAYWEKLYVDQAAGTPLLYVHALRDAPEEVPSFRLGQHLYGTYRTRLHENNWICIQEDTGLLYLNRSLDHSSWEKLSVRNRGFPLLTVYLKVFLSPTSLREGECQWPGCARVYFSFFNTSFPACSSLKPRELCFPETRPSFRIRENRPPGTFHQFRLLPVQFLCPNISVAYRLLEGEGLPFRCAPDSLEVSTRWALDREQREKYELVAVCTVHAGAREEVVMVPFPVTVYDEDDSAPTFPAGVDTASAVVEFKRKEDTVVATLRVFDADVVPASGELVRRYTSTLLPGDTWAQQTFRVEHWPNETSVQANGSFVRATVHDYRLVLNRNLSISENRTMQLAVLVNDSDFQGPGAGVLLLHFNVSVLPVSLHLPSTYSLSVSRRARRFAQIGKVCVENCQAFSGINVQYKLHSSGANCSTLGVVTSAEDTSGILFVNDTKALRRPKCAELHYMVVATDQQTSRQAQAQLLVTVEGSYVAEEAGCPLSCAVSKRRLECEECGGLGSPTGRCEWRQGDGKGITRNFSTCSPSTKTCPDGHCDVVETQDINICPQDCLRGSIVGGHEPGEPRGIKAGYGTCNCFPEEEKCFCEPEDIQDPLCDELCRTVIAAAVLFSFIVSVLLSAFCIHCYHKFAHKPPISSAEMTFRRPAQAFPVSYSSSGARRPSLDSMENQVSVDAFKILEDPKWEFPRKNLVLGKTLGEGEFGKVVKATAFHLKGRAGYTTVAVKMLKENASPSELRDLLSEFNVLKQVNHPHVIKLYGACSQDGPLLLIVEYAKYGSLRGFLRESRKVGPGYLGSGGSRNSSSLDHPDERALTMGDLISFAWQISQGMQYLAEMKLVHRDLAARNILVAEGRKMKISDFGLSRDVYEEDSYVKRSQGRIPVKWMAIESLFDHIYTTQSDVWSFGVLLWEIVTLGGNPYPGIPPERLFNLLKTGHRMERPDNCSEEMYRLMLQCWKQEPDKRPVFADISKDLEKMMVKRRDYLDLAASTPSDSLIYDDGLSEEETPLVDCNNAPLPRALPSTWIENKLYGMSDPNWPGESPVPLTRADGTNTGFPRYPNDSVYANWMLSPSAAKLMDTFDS
Procedure: (§1) For detailed test methods, the following references were referred to: T. Anastassiadis, S. W. Deacon, K. Devarajan, H. Ma, J. R. Peterson. […] Nat. Biotech.
(§2) The compounds of the present invention were dissolved in dimethyl sulfoxide (DMSO) to prepare 10 mM stock solutions, and ten different doses by 3-fold serial dilutions from 10 mM were prepared. The ATP concentration used in this determination was 1 μM.
(§3) Base reaction buffer: 20 mM 4-(2-hydroxyethyl)-1-piperazineethanesulfonic acid buffer (Hepes, pH 7.5), 10 mM magnesium chloride, 1 mM ethylene glycol-bis(3-aminoethylether)-N,N,N′,N′-tetraacetic acid (EGTA), 0.02% Brij™-35 (purchased from ThermoFisher Scientific), 0.02 mg/mL bovine serum albumin (BSA), 0.1 mM sodium orthovanadate (Na3VO4), 2 mM dithiothreitol (DTT), 1% dimethyl sulfoxide (DMSO).
(§4) a) adding the corresponding substrate to a freshly prepared base reaction buffer;
(§5) b) adding necessary cofactors;
(§6) c) adding kinase and shake gently;
(§7) d) adding the compounds in DMSO using Acoustic technology (Echo550; nanoliter range) and incubating at room temperature for 20 minutes;
(§8) e) adding 33P-ATP (specific activity 10 μCi/μL) to initiate the reaction;
(§9) f) incubating the kinase reaction at room temperature for 2 hours;
(§10) g) spotting the resultant of reaction on P81 ion exchange paper (purchased from Whatman);
(§11) h) detecting kinase activity by filter binding assay.
(§12) IC50 values were generated using Prism (GraphPad software).

[2] = biological target: T2, RET(V804M) mutant (Homo sapiens, UniProt P07949, V804M); test: Biochemical IC50 of RET(V804M) mutant (33P-ATP filter binding, Reaction Biology)
T2 construct: purchased Reaction Biology Corporation (contract assay; enzyme is the CRO's)
T2 sequence (P07949 29-1114 V804M): as the sequence (P07949 29-1114) above, with V776M counted along it
Procedure: as §1, §2, §3, §4, §5, §6, §7, §8, §9, §10, §11, §12

[3] = biological target: T3, RET-CCDC6 (Homo sapiens, UniProt P07949); test: Biochemical IC50 of RET-CCDC6 fusion (33P-ATP filter binding, Reaction Biology)
T3 construct: CCDC6 (fusion partner, UniProt Q16204); purchased Reaction Biology Corporation (contract assay; enzyme is the CRO's); the other entry of the earlier key: CCDC6 (Q16204, Coiled-coil domain-containing protein 6)
T3 sequence (P07949 with tags, fused parts or gaps): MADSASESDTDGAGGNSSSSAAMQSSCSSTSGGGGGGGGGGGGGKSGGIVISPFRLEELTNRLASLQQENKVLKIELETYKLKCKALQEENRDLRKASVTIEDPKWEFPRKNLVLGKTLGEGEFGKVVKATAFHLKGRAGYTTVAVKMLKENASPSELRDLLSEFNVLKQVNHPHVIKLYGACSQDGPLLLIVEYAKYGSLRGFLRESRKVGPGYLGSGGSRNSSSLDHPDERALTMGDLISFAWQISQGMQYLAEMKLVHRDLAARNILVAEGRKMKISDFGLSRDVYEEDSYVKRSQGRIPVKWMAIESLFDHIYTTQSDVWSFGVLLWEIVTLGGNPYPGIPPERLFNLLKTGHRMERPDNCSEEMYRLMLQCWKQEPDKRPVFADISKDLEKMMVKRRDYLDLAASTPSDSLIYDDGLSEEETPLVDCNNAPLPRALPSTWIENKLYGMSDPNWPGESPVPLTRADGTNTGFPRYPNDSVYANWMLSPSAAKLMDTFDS
Procedure: as §1, §2, §3, §4, §5, §6, §7, §8, §9, §10, §11, §12

[4] = test system: Phospho-RET in LC-2/ad lung cancer cells; test: Phospho-RET ELISA in LC-2/ad tumor cells; format: cell-based; conditions: Homo sapiens, 1 h, read-out: Cell IC50 Phospho-RET
Procedure: (§13) The compounds of the present invention were dissolved in dimethyl sulfoxide (DMSO) to prepare 10 mM stock solutions, and ten different doses by 3-fold serial dilutions from 10 mM were prepared. An ELISA assay format was used in the test.
(§14) PathScan® Phospho-Ret (panTyr) and p44/42 MAPK (Thr202/Tyr204) (ERK) Sandwich ELISA kits were purchased from Cell Signaling Technology. The LC-2/ad lung cancer cell line was purchased from Sigma-Aldrich. […] The medium was supplemented with 10% fetal bovine serum (FBS), 100 μg/mL penicillin and 100 μg/mL streptomycin, and the cultures were maintained at 37° C. in a humidified atmosphere of 5% CO2 and 95% air.
(§15) a) 1.5×10^4 LC-2/ad cells were seeded in the wells of a 96-well tissue culture plate overnight;
(§16) b) the cells were treated with DMSO or the test compound in DMSO (the initial concentration was 1 μM, and ten doses by 3-fold serial dilutions) for one hour;
(§17) The plate was shaken for 1 minute, then placed on a rocking platform at 4° C. for 30 minutes;
(§18) d) 80 μL/well of lysate was added to the appropriate wells of each ELISA plate and the plate was incubated overnight at 4° C. on a rocking platform;
(§19) e) the contents of the plate were discarded into a container and the wells were washed for four times with 200 μL/well of 1×ELISA wash buffer;
(§20) f) 100 μL of reconstituted Phospho-Ret(panTyr) or Phospho-ERK(Thr202/Tyr204; p44/42MAPK) detection antibody was added to the appropriate wells and the plate was incubated at 37° C. for 1 hour;
(§21) g) the washing procedure was repeated and 100 μL of reconstituted HRP-linked secondary antibody was added to each well of two plates and the plates were incubated at 37° C. for 30 minutes;
(§22) h) the washing procedure was repeated, 100 μL of TMB substrate was added to each well, and the plates were incubated at 37° C. for 45 minutes;
(§23) i) 100 μL of STOP solution was added to each well and the plate was gently shaken for a few seconds.

[5] = test system: Phospho-ERK in LC-2/ad lung cancer cells; test: Phospho-ERK ELISA in LC-2/ad tumor cells; format: cell-based; conditions: Homo sapiens, 1 h, read-out: Cell IC50 Phospho-ERK
Procedure: as §13, §14, §15, §16, §17, §18, §19, §20, §21, §22, §23

[6] = wild-type RET kinase, ATP 1 μM, 33P-ATP filter binding, read-out: Biochemical IC50 RET
[7] = RET(V804M) mutant, ATP 1 μM, 33P-ATP filter binding, read-out: Biochemical IC50 RET (V804M)
[8] = RET-CCDC6 fusion, ATP 1 μM, 33P-ATP filter binding, read-out: Biochemical IC50 RET-CCDC6

Row | SMILES | IC50 [1, 6] [nM] | IC50 [2, 7] [nM] | IC50 [3, 8] [nM] | IC50 ([4]; LC-2-ad) [nM] | IC50 [5] [nM] | IC50 [1] [nM] | IC50 [2] [nM] | IC50 [3] [nM] | IC50 ([4]; LC-2/ad lung cancer cells, one hour treatment, sandwich ELISA) [nM]
1 | CC(C)(O)COc1cc(-c2ccc(N3CCS(=N)(=O)CC3)nc2)c2c(C#N)cnn2c1 [Ex. 2, 6-(2-hydroxy-2-methylpropoxy)-4-(6-(1-imino-1-oxothiomorpholinyl)pyridin-3-yl)pyrazolo[1,5-a]pyridine-3-carbonitrile] | 4.23 | 21.2 | 2.81 | – | – | – | – | – | –
2 | COc1ccc(N=S2(=O)CCN(c3ccc(-c4cc(OCC(C)(C)O)cn5ncc(C#N)c45)cn3)CC2)cn1 [Ex. 3, 6-(2-hydroxy-2-methylpropoxy)-4-(6-(1-((6-methoxypyridin-3-yl)imino)-1-oxothiomorpholinyl)pyridin-3-yl)pyrazolo[1,5-a]pyridine-3-carbonitrile] | 1.66 | 3.78 | 0.993 | – | – | – | – | – | –
3 | CC(C)CN=S1(=O)CCN(c2ccc(-c3cc(OCC(C)(C)O)cn4ncc(C#N)c34)cn2)CC1 [Ex. 4, 6-(2-hydroxy-2-methylpropoxy)-4-(6-(1-(isobutylimino)-1-oxothiomorpholinyl)pyridin-3-yl)pyrazolo[1,5-a]pyridine-3-carbonitrile] | 6.74 | 55.7 | 4.59 | – | – | – | – | – | –
4 | COc1ccc(CN=S2(=O)CCN(c3ccc(-c4cc(OCC(C)(C)O)cn5ncc(C#N)c45)cn3)CC2)cn1 [Ex. 5, 6-(2-hydroxy-2-methylpropoxy)-4-(6-(1-(((6-methoxypyridin-3-yl)methyl)imino)-1-oxothiomorpholinyl)pyridin-3-yl)pyrazolo[1,5-a]pyridine-3-carbonitrile] | 3.62 | 17.9 | 2.09 | – | – | – | – | – | –
5 | CC(C)(O)COc1cc(-c2ccc(N3CCS(=O)(=NC4CCNCC4)CC3)nc2)c2c(C#N)cnn2c1 [Ex. 7, 6-(2-hydroxy-2-methylpropoxy)-4-(6-(1-oxo-1-(piperidin-4-ylimino)thiomorpholinyl)pyridin-3-yl)pyrazolo[1,5-a]pyridine-3-carbonitrile] | 18.1 | 165 | 12.6 | – | – | – | – | – | –
6 | CC(C)(O)COc1cc(-c2ccc(N3CCC(N=S(C)(C)=O)CC3)nc2)c2c(C#N)cnn2c1 [Ex. 8, 4-(6-(4-((dimethyloxo-λ^4-sulfinyl)amino)piperidin-1-yl)pyridin-3-yl)-6-(2-hydroxy-2-methylpropoxy)pyrazolo[1,5-a]pyridine-3-carbonitrile] | 9.45 | 63.6 | 5.89 | – | – | – | – | – | –
7 | CC(C)(O)COc1cc(-c2ccc(N3CCC(N=[S@@](C)(=O)c4ccccc4)CC3)nc2)c2c(C#N)cnn2c1 [Ex. 9, 4-(6-(4-(((S)—S-methyl-S-phenyl-oxo-λ^4-sulfinyl)amino)piperidin-1-yl)pyridin-3-yl)-6-(2-hydroxy-2-methylpropoxy)pyrazolo[1,5-a]pyridine-3-carbonitrile] | 14.2 | 138 | 8.14 | – | – | – | – | – | –
8 | CC(C)(O)COc1cc(-c2ccc(N3CCC(N=[S@](C)(=O)c4ccccc4)CC3)nc2)c2c(C#N)cnn2c1 [Ex. 10, 4-(6-(4-(((R)—S-methyl-S-phenyl-oxo-λ^4-sulfinyl)amino)piperidin-1-yl)pyridin-3-yl)-6-(2-hydroxy-2-methylpropoxy)pyrazolo[1,5-a]pyridine-3-carbonitrile] | 6.18 | 36 | 4.59 | – | – | – | – | – | –
9 | Cn1cc(-c2cc(-c3ccc(N4CCS(=N)(=O)CC4)nc3)c3c(C#N)cnn3c2)cn1 [Ex. 12, 4-(6-(1-imino-1-oxothiomorpholinyl)pyridin-3-yl)-6-(1-methyl-1H-pyrazole-4-yl)pyrazolo[1,5-a]pyridine-3-carbonitrile] | 0.849 | 5.55 | 0.523 | 11.5 | 246 | – | – | – | –
10 | CC(C)CN=S1(=O)CCN(c2ccc(-c3cc(-c4cnn(C)c4)cn4ncc(C#N)c34)cn2)CC1 [Ex. 13, 4-(6-(1-(isobutylimino)-1-oxothiomorpholinyl)pyridin-3-yl)-6-(1-methyl-1H-pyrazole-4-yl)pyrazolo[1,5-a]pyridine-3-carbonitrile] | – | – | – | 16.3 | 6.55 | 0.89 | 5.1 | 0.416 | –
11 | Cn1cc(-c2cc(-c3ccc(N4CCC(N=[S@@](C)(=O)c5ccccc5)CC4)nc3)c3c(C#N)cnn3c2)cn1 [Ex. 17, 4-(6-(4-(((S)—S-methyl-S-phenyl-oxo-λ^4-sulfinyl)amino)piperidin-1-yl)pyridin-3-yl)-6-(1-methyl-1H-pyrazole-4-yl)pyrazolo[1,5-a]pyridine-3-carbonitrile] | 1.49 | 10.6 | 0.776 | – | – | – | – | – | –
12 | COc1ccc(N=S2(=O)CCN(c3ccc(-c4nc(-c5cnn(C)c5)cn5ncc(C#N)c45)cn3)CC2)cn1 [Ex. 22, 4-(6-(1-((6-methoxypyridin-3-yl)imino)-1-oxothiomorpholinyl)pyridin-3-yl)-6-(1-methyl-1H-pyrazole-4-yl)pyrazolo[1,5-a]pyrazine-3-carbonitrile] | 0.673 | 3.24 | 0.41 | – | – | – | – | – | –
13 | Cn1cc(-c2cn3ncc(C#N)c3c(-c3ccc(N4CCC(N=S(C)(C)=O)CC4)nc3)n2)cn1 [Ex. 23, 4-(6-(4-((dimethyloxo-λ^4-sulfinyl)amino)piperidin-1-yl)pyridin-3-yl)-6-(1-methyl-1H-pyrazole-4-yl)pyrazolo[1,5-a]pyrazine-3-carbonitrile] | – | – | – | – | – | 4.09 | 25 | 2.16 | –
14 | Cn1cc(-c2cn3ncc(C#N)c3c(-c3ccc(N4CCC(N=[S@@](C)(=O)c5ccccc5)CC4)nc3)n2)cn1 [Ex. 24, 4-(6-(4-(((S)—S-methyl-S-phenyl-oxo-λ^4-sulfinyl)amino)piperidin-1-yl)pyridin-3-yl)-6-(1-methyl-1H-pyrazole-4-yl)pyrazolo[1,5-a]pyrazine-3-carbonitrile] | 4.06 | 26.3 | 1.93 | – | – | – | – | – | –
15 | COc1ccc(CN2C3CC2CN(c2ccc(-c4cc(OCC(C)(C)O)cn5ncc(C#N)c45)cn2)C3)cn1 [LOXO292, reference compound] | – | – | – | – | > 1000 | – | – | – | 6.08
